From patent publication US12011438B2, “Composition for protecting cardiomyocyte” (Kyoto University, priority 2018, dated 2024)
Structures can show the parent of a compound that is named as a salt.

Experiments:
[1] = system: CHOP and Bip, ER stress markers; assay: Western blotting of ER stress markers in rat cardiomyoblasts in glucose-free medium; format: cell-based; conditions: H9C2 cells, 200 μM KUS121 (FIG. 7)
Experimental: (§1) H9C2 cells, rat cardiomyoblasts, were cultured in Dulbecco's modified Eagle's medium (DMEM) supplemented with 5% fetal bovine serum in the presence of […] tunicamycin (Sigma-Aldrich Co. LLC), which induces ER stress, and 25, 50, 100, or […] KUS121 for 24 hours. The cells were counted by Countess II (Thermo Fisher Scientific). The intracellular ATP levels were measured using “Cell” ATP Assay reagent (TOYO B-Net Co., LTD). The luciferase activities, which indicate ATP levels, were measured with ARVO X3 (PerkinElmer, Inc.).
(§2) The cells cultured as above were subjected to Western blotting. […] After the protein concentrations were measured with BCA protein assay kit (Bio-Rad, 5000006JA), 15 μg of the protein samples were separated in NuPAGE 4-12% Bis-Tris Mini gels (Thermo Fisher Scientific) and transferred to Protran nitrocellulose transfer membrane (Whatman). The membrane was blocked with PBS containing 5% skim milk for 30 minutes, incubated with primary antibodies overnight at 4° C., washed with PBS-0.05% Tween-20 (PBS-T), incubated with secondary antibodies for 1 hour at room temperature, and washed with PBS-T. Pierce Western Blotting Substrate (Thermo Fisher Scientific) or Pierce Western Blotting Substrate plus (Thermo Fisher Scientific) were reacted with the secondary antibodies for producing colors, and the color intensities were measured by LAS-4000 Mini system (Fuji Film). […]

[2] = system: cardiac ischemia and reperfusion injury model mice; assay: Mouse cardiac ischemia and reperfusion injury model (KUS administration after reperfusion); format: in vivo; conditions: seven days after surgery
Experimental: Mouse myocardial infarction model was prepared as in Test 5.
First, immediately after the reperfusion KUS121 was administered intravenously at the dose of 80 mg/kg and intraperitoneally at the dose of 80 mg/kg. Subsequently, KUS121 was intraperitoneally administered at the dose of 160 mg/kg every 24 hours for 4 days. Seven days after the surgery, histological analysis was performed as in Test 5 to determine the infarcted area.
Immediately after the reperfusion KUS121 was administered intravenously at the dose of 25 mg/kg and intraperitoneally at the dose of 25 mg/kg. Subsequently, KUS121 was not administered. Seven days after the surgery, histological analysis was performed as in Test 5 to determine the infarcted area.
Immediately after the reperfusion KUS121 was administered intravenously at the dose of 8 mg/kg and intraperitoneally at the dose of 8 mg/kg. Subsequently, KUS121 was not administered. Seven days after the surgery, histological analysis was performed as in Test 5 to determine the infarcted area.

[3] = system: H9C2 cells, rat cardiomyoblasts; assay: Rat cardiomyoblasts under ER stress by glucose depletion: cell number and ATP level; format: cell-based; conditions: glucose-free medium, 25, 50, 100, or 200 μM KUS121 (FIG. 6)
Experimental: as §1
Similar experiments were performed using the cells cultured in a glucose-free medium. […] The expressions of CHOP and Bip, ER stress markers, were suppressed in the presence of KUS121.

[4] = system: cardiac ischemia and reperfusion injury model pigs; assay: Porcine cardiac ischemia and reperfusion injury model (intravenous and intracoronary administration of KUS); format: in vivo, Yorkshire pig
Experimental: Porcine myocardial infarction model was prepared by inserting a catheter into a Yorkshire pig under general anesthesia and occluding the left coronary artery with a balloon. An infusion solution was prepared by dissolving KUS121 (4 mg/kg) in 250 mL of glucose solution and administered by intravenous infusion that started 45 minutes after the occlusion of the coronary artery and continued for 3 hours. The balloon was released 60 minutes after the occlusion, and 10 mL of the infusion solution was infused intracoronarily.
One week after the occlusion, the infarct size was evaluated by late gadolinium enhanced MRI. […] The cardiac function was evaluated by determining left ventricular ejection fraction, end diastolic volume, end systolic volume, cardiac output, and left ventricular mass by MRI. The left ventricular systolic function was improved by KUS121 administration.
After the MRI, the occluded part of the left coronary artery was occluded again with the balloon catheter and 1% Evans blue was injected to the left and right coronary arteries (60 mL for the left coronary artery and 30 mL for the right coronary artery; non-infarct regions were stained blue). Additionally, 30 mL of 1% TTC solution was injected through the guidewire lumen of the occlusion balloon. Euthanasia was then performed by an intravenous injection of potassium chloride. The heart was isolated and 10-mm thick sections were prepared parallel to the atrioventricular groove. The sections were further immersed in 1% TTC solution for 10 minutes at 37° C. (regions not damaged by myocardial infarction were stained red). All sections were weighed and photographed. They were fixed in 10% formaldehyde and used for subsequent histological analysis. […] No difference was found in the area at risk between the […] group and the KUS group, but administration of KUS decreased the infarcted area per area at risk.

[5] = system: CHOP and Bip, ER stress markers; assay: Western blotting of ER stress markers in rat cardiomyoblasts under tunicamycin; format: cell-based; conditions: H9C2 cells, 200 μM KUS121 (FIG. 5)
Experimental: as §1, §2

[6] = system: cardiac ischemia and reperfusion injury model pigs; assay: Porcine cardiac ischemia and reperfusion injury model (KUS administration after reperfusion); format: in vivo, Yorkshire pig; conditions: intracoronary injection 0.64, 2.5, or 5.0 mg/kg immediately after reperfusion, seven days after surgery
Experimental: Porcine myocardial infarction model was prepared as in Test 8. The balloon was released 60 minutes after the occlusion, and immediately KUS121 was administered by intracoronary injection at a dose of 0.64, 2.5, or 5.0 mg/kg for 3 minutes. Seven days after the surgery, the infarct size was evaluated by MRI and the infarcted area was determined by histological analysis as in Test 8.

[7] = system: A team mouse heart ischemia and reperfusion injury model; assay: Mouse heart ischemia and reperfusion injury model (ATP visualization mouse); format: in vivo; conditions: A team mice, 160 mg/kg i.p. 2 hours before reperfusion, 45 minutes ischemia
Source text: ATP visualization mouse (A team mouse) generated by Dr. Masamichi Yamamoto (Department of Nephrology, Graduate School of Medicine, Kyoto University) was used. In A team mouse fluorescence resonance energy transfer (FRET) from GFP to OFP occurs depending on the intracellular ATP level. The OFP/GFP ratio is proportional to the ATP level.
Anesthesia was induced in each A team mouse with 4% isoflurane and maintained with 2% isoflurane during surgery. An endotracheal tube was introduced after the anesthetic induction and positive pressure ventilation was provided. The lateral thoracic regions and subcostal margins were incised bilaterally and the thoracic cavity was opened to expose the heart. […] The ischemia was continued for 45 minutes and then reperfusion was induced by removing the PE10 tube. KUS121 was intraperitoneally administered at the dose of 160 mg/kg 2 hours before the reperfusion. For measuring the ATP level, fluorescence was excited at 470/40 and detected at 515/30 for GFP and 575/40 for OFP to acquire images. The OFP/GFP ratios were analyzed using MetaMorph (Molecular Devices). The ATP level during ischemia was decreased in the control group, but maintained in the KUS121 group.

[8] = system: H9C2 cells, rat cardiomyoblasts; assay: Rat cardiomyoblasts under ER stress with tunicamycin: cell number and ATP level; format: cell-based; conditions: 0.1 pg/mL tunicamycin, 25, 50, 100, or 200 pM KUS121, 24 hours
Experimental: as §1

[9] = system: cardiac ischemia and reperfusion injury model mice; assay: Mouse cardiac ischemia and reperfusion injury model (KUS administration prior to ischemia); format: in vivo
Experimental: Eight-week-old C57BL/6J mice were used. Each mouse was anesthetized with intraperitoneally administered pentobarbital (64.8 mg/kg). An endotracheal tube was introduced after the anesthetic induction and positive pressure ventilation was provided.
Each mouse was fixed in a right lateral position, the thoracic cavity was opened through left thoracotomy in the third intercostal space to expose the heart. […] The blockage of the coronary blood flow was confirmed by observing a change in the color of the myocardium. The ischemia was continued for 45 minutes and then reperfusion was induced by removing the PE10 tube. The reperfusion was confirmed by checking restoration of the color of the myocardium. The thoracic cavity was closed with 7-0 prolene sutures and the skin was closed with 4-0 silk sutures. After observing awakening from the anesthesia, the endotracheal tube was removed.
KUS121 dissolved in a physiological saline was injected prior to the ischemia induction. […] First, 2 hours before the reperfusion, i.e., about 1 hour before the start of the ischemia, KUS121 was intraperitoneally administered at the dose of 160 mg/kg. Subsequently, KUS121 was intraperitoneally administered at the dose of 160 mg/kg every 24 hours for 6 days.
Seven days after the surgery, the mice were anesthetized with pentobarbital, perfused with 4% paraformaldehyde (PFA) for fixation, and the hearts were isolated. The isolated hearts were further fixed in 4% PFA overnight. The hearts were embedded in paraffin and sections were prepared. The infarcted regions were evaluated with Masson's trichrome staining. The images were acquired using a microscope (BZ-9000, Keyence) and the infarcted areas were measured using Image J (NIH).
To evaluate the cardiac function, echocardiography (Vevo^(registered trademark) 2100, VISUALSONICS) was performed in the mouse ischemia and reperfusion injury model. […] The left ventricular systolic functions were evaluated by measuring the left ventricular fractional shortening and left ventricular ejection fraction in parasternal short axis views.

[10] = intravenous infusion plus intracoronary, histological analysis (Evans blue/TTC)

**Q.** Which “expression of Bip” value [1] does the source give for `Cc1cc(F)ccc1-c1ccc(/N=N/c2cc(S(=O)(=O)O)c3ccccc3c2N)cn1` [KUS121, 4-amino-3-[6-(4-fluoro-2-methylphenyl)pyridine-3-ylazo]naphthalene-1-sulfonic acid sodium salt] here?
**A.** suppressed

**Q.** What about the “expression of CHOP” value [1] of the same compound?
**A.** suppressed

**Q.** What about the “infarcted area (ratio to left ventricle area)” value ([2]; (1) 160 mg/kg: 80 mg/kg i.v. + 80 mg/kg i.p. immediately after reperfusion, then 160 mg/kg i.p. every 24 hours for 4 days) of the same compound?
**A.** smaller in the KUS121 group than in the control group

**Q.** What about the “infarcted area (ratio to left ventricle area)” value ([2]; (2) 50 mg/kg: 25 mg/kg i.v. + 25 mg/kg i.p. immediately after reperfusion only) of the same compound?
**A.** smaller in the KUS121 group than in the control group

**Q.** And the “infarcted area (ratio to left ventricle area)” value ([2]; (3) 16 mg/kg: 8 mg/kg i.v. + 8 mg/kg i.p. immediately after reperfusion only)?
**A.** No significant difference

**Q.** And the ATP level [3]?
**A.** increased depending on the dose

**Q.** And the cell number [3]?
**A.** increased depending on the dose

**Q.** What about the “left ventricular systolic function” value ([4]; 4 mg/kg intravenous infusion for 3 hours plus intracoronary infusion after reperfusion, MRI one week after occlusion) of the same compound?
**A.** improved

**Q.** And the “area at risk relative to the left ventricle” value [4, 10]?
**A.** No difference

**Q.** What about the “infarcted area per area at risk” value [4, 10] of the same compound?
**A.** decreased

**Q.** What about the “expression of Bip” value [5] of the same compound?
**A.** suppressed

**Q.** And the “expression of CHOP” value [5]?
**A.** suppressed

**Q.** And the “ratio of infarcted area/left ventricle (LV) area evaluated by MRI” value [6]?
**A.** decreased in the KUS121 group in a dose-dependent manner

**Q.** What about the “ratio of infarcted area/AAR” value ([6]; histological analysis) of the same compound?
**A.** decreased in the KUS121 group in a dose-dependent manner

**Q.** And the “ratio of infarcted area/area at risk (AAR) (first mention)” value ([6]; versus control group)?
**A.** comparable with that of the control group

**Q.** What about the “ATP level during ischemia (OFP/GFP ratio)” value [7] of the same compound?
**A.** maintained

**Q.** What about the ATP level [8] of the same compound?
**A.** increased depending on the dose

**Q.** And the cell number [8]?
**A.** increased depending on the dose

**Q.** And the “infarcted area (ratio to left ventricle area)” value ([9]; 160 mg/kg i.p. 2 hours before reperfusion and every 24 hours for 6 days, seven days after surgery, Masson's trichrome)?
**A.** smaller in the KUS121 group than in the control group

**Q.** What about the “expression of CHOP in the border zone and non-ischemic zone” value ([9]; 160 mg/kg i.p. prior to ischemia and every 24 hours, Western blotting) of the same compound?
**A.** suppressed

**Q.** And the “left ventricular systolic function (fractional shortening, ejection fraction)” value ([9]; 160 mg/kg i.p. prior to ischemia and every 24 hours, echocardiography)?
**A.** kept well at almost the same level as that in sham-operated group
